In ChEMBL document CHEMBL6121046, “Discovery of Novel Hydrazide-Based HDAC3 Inhibitors as Epigenetic Immunomodulators for Cancer Immunotherapy” (J Med Chem, 2025):
Blank lines part the entries; values can stand above or below the compound they belong to. The source made the active and inactive calls. The rule behind the calls is not given here.

Key:
Histone deacetylase 7 = molecular target: T1, Histone deacetylase 7 (Homo sapiens, UniProt Q8WUI4); assay: Inhibition of human recombinant HDAC7 pre-incubated with compounds for 10 mins measured followed by 60 mins of substrate addition
T1 sequence (Q8WUI4 whole entry): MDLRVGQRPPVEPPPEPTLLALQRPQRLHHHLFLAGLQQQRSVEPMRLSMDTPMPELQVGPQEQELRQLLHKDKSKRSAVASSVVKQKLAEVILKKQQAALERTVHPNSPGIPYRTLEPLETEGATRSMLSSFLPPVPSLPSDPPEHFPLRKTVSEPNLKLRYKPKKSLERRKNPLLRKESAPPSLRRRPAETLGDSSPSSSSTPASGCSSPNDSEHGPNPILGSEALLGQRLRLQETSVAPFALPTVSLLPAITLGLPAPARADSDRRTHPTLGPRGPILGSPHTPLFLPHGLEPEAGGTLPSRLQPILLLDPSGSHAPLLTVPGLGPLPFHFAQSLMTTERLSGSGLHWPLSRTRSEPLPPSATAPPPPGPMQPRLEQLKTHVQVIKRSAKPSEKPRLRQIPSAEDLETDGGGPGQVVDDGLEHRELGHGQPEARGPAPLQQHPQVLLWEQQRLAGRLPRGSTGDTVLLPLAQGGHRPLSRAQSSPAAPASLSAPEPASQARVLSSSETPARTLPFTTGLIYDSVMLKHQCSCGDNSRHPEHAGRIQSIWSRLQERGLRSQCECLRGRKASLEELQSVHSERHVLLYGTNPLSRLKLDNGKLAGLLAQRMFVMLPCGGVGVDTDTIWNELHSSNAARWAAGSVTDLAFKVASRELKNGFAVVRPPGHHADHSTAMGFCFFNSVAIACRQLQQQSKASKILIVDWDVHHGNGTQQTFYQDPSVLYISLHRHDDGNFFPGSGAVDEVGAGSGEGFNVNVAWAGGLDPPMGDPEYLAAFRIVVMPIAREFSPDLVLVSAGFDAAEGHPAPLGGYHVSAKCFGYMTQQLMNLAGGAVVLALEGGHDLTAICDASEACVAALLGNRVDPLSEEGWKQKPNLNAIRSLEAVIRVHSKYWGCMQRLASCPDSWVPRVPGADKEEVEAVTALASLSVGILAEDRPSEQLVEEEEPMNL

HCT-116 = assay: Antiproliferative activity against human HCT-116 cells measured after 48 hrs incubation by MTT assay relative to control; format: functional, cell-based; details: HCT-116, 48 h
Mus musculus = assay: Induction of acetylated H3 level in tumor in C57BL/6 mouse allografted with mouse MC38 cells in presence of NP19 PD-L1 inhibitor at 50 mg/kg, po treated 5 days after cell inoculation 19 th day by immunofluorescence analysis; format: functional, organism-based; details: time 15.0 day
MCF7 = assay: Antiproliferative activity against human MCF7 cells measured after 48 hrs incubation by MTT assay relative to control; format: functional, cell-based; details: MCF7, 48 h
HepG2 = assay: Antiproliferative activity against human HepG2 cells measured after 48 hrs incubation by MTT assay relative to control; format: functional, cell-based; details: HepG2, 48 h
MC-38 [1] = assay: Induction of apoptosis in mouse MC38 cells assessed as viable cells at 4 uM measured after 48 hrs by FITC/PI staining based flow cytometry (reference value: 82.07%); format: functional; details: read-out: Activity
[2] = Acute toxicity in C57 mouse assessed as body weight change; details: in vivo
Histone deacetylase 8 = molecular target: T2, Histone deacetylase 8 (Homo sapiens, UniProt Q9BY41); assay: Inhibition of human recombinant HDAC8 pre-incubated with compounds for 10 mins measured followed by 60 mins of substrate addition
T2 sequence (Q9BY41 whole entry): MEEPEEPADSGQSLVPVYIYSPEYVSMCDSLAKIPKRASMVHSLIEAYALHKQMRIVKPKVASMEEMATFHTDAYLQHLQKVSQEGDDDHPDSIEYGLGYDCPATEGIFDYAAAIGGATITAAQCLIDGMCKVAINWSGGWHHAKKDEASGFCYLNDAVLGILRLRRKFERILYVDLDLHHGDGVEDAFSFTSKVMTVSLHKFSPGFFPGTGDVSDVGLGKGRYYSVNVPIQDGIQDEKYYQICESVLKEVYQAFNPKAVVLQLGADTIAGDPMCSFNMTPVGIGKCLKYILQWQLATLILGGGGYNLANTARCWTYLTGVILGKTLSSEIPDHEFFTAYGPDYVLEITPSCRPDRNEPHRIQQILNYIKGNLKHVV

MC-38 [3] = assay: Cell cycle arrest in mouse MC38 cells assessed as decrease in accumulation of cells at G0/G1 phase measured after 48 hrs by flow cytometry; format: functional, cell-based; details: dose 1-8 µM
MC-38 [4] = assay: Effect on acetylated SMC3 in mouse MC38 cells at 0.1 to 2 uM measured after 24 hrs incubation by Western blot analysis; format: functional, cell-based; details: dose 0.1-2 µM
MC-38 [5] = assay: Induction of mitochondrial membrane damage in mouse MC38 cells assessed as increase in JC-1 monomers by measuring green fluorescence at 4 uM measured after 48 hrs (reference value: 3.13%); format: functional
[6] = Half life in Sprague-Dawley rat at 20 mg/kg, po measured upto 12 hrs by LC-MS/MS analysis; format: ADME, organism-based; details: in vivo
[7] = Antiproliferative activity against […] cells measured after 48 hrs incubation by MTT assay relative to control; format: functional, cell-based; details: Mus musculus, Lung cancer cell line
MC-38 [8] = assay: Induction of apoptosis in mouse MC38 cells assessed as early apoptotic cells at 2 uM measured after 48 hrs by FITC/PI staining based flow cytometry (Rvb =12.27%); format: functional
MC-38 [9] = assay: Induction of PD-L1 expression in mouse MC38 cells measured after 24 hrs incubation by Western blot analysis; format: functional, cell-based; details: dose 1-4 µM
MC-38 [10] = assay: Induction of apoptosis in mouse MC38 cells assessed as late apoptotic cells at 8 uM measured after 48 hrs by FITC/PI staining based flow cytometry (reference value: 5.07%); format: functional
Histone deacetylase 1 = Histone deacetylase 1 (Homo sapiens, UniProt Q13547); assay: Inhibition of human recombinant HDAC1 pre-incubated with compounds for 10 mins measured followed by 60 mins of substrate addition
Sequence of Histone deacetylase 1 (Q13547 whole entry): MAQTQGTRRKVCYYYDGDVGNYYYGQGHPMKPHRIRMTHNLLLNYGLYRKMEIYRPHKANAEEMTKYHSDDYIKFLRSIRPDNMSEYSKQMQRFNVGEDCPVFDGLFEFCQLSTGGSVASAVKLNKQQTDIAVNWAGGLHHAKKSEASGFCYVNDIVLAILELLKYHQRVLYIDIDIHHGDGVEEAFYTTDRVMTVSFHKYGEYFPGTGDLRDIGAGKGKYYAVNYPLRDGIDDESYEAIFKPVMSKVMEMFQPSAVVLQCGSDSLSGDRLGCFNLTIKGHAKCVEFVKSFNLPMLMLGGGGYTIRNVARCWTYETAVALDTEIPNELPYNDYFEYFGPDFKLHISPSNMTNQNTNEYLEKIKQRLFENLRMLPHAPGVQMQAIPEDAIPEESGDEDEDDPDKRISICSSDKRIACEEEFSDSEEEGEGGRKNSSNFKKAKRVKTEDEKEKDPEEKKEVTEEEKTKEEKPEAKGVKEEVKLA

[11] = Oral bioavailability in Sprague-Dawley rat at 20 mg/kg measured upto 12 hrs by LC-MS/MS analysis; format: ADME, organism-based; details: in vivo
[12] = Toxicity in C57BL/6 mouse allografted with mouse MC38 cells assessed as pathological changes in heart at 50 mg/kg, po treated 5 days after cell inoculation 19 th day by hematoxylin and eosin analysis; format: organism-based; details: in vivo, 360 h, time 15 day
MC-38 [13] = assay: Induction of apoptosis in mouse MC38 cells assessed as early apoptotic cells at 8 uM measured after 48 hrs by FITC/PI staining based flow cytometry (Rvb =12.27%); format: functional
MC-38 [14] = assay: Induction of apoptosis in mouse MC38 cells assessed as necrotic cells at 8 uM measured after 48 hrs by FITC/PI staining based flow cytometry (reference value: 0.56%); format: functional
B16-F10 = assay: Antiproliferative activity against mouse B16-F10 cells at 1 uM measured after 48 hrs incubation by MTT assay relative to control
MC-38 [15] = assay: Induction of apoptosis in mouse MC38 cells assessed as early apoptotic cells at 1 uM measured after 48 hrs by FITC/PI staining based flow cytometry (Rvb =12.27%); format: functional

SMILES: CCCNNC(=O)c1ccc(CNC(=O)c2cnc(-c3ccc4occc4c3)[nH]2)cc1
- IC50 (Histone deacetylase 7): > 10 µM
- IC50 (HCT-116): 100 nM
- Activity (Mus musculus): Active
- IC50 (MCF7): 1900 nM
- IC50 (HepG2): 330 nM
- viability at 4 µM (MC-38 [1]): 18.2%
- LD50 [2]: > 200 mg/kg
- IC50 (Histone deacetylase 8): > 10 µM
- Activity (MC-38 [3]): Dose-dependent-effect
- Activity (MC-38 [4]): inactive
- Activity (MC-38 [5]): 27.53%
- half-life [6]: 188 min
- IC50 [7]: 1030 nM
- Activity (MC-38 [8]): 31.2%
- Activity (MC-38 [9]): Dose-dependent-effect
- Activity (MC-38 [10]): 60.9%
- IC50 (Histone deacetylase 1): 3.98 µM
- F [11]: 11.5%
- Activity [12]: Non-toxic
- Activity (MC-38 [13]): 19.83%
- Activity (MC-38 [14]): 2.85%
- Activity (B16-F10): 54.57%
- Activity (MC-38 [15]): 11.97%

- IC50 (Histone deacetylase 7): > 10 µM
- IC50 (HCT-116): 230 nM
- IC50 (MCF7): 2160 nM
- IC50 (HepG2): 370 nM
- IC50 (Histone deacetylase 8): > 10 µM
- IC50 (Histone deacetylase 1): 2.03 µM
SMILES: CCCNNC(=O)c1ccc(CNC(=O)c2cnc(-c3cccc4ccccc34)[nH]2)cc1
- viability at 4 µM (MC-38 [1]): 28.3%
- Activity (MC-38 [3]): Dose-dependent-effect
- Activity (MC-38 [4]): inactive
- IC50 [7]: 930 nM
- Activity (MC-38 [8]): 18.6%
- Activity (MC-38 [9]): Dose-dependent-effect
- Activity (MC-38 [10]): 46.63%
- Activity (MC-38 [13]): 22.9%
- Activity (MC-38 [14]): 8.29%
- Activity (B16-F10): 55.07%
- Activity (MC-38 [15]): 15.8%
